Molecules are shown by their SMILES. Where a name gives a salt, the structure may show the parent alone.

For `Cc1cc(N)nc(CCCCNC(=O)C2(C)CCc3c(C)c(O)c(C)c(C)c3O2)c1.O=C(O)/C=C/C(=O)O` (centres unmarked), the melting point is 131 to 136 °C.
Regarding `Cc1c(C)c2c(c(C)c1O)CCC(C)(C(=O)N1CCN(CCC#Cc3ccc(N)nc3)CC1)O2.Cl` (centres unmarked), the melting point is 210 to 212 °C.
`Cc1c(C)c2c(c(C)c1O)CCC(C)(C(=O)N1CCN(CCCCc3ccc(N)nc3)CC1)O2.Cl` (centres unmarked): the melting point lay within 221 to 223 °C.
In the case of `COc1cc(C=CCNCCCCc2cc(C)cc(N)n2)ccc1O` (as salt: hydrochloride) [Example 26, 6-amino-N-[13-(4-hydroxy-3-metboxy-phenyl)-2-propenyl]4-methyl-2-pyridinebutanamine hydrochloride], the melting point is 60 to 62 °C.
Under `Cc1cc(N)nc(CCCCNC(=O)c2ccc3c(c2)OCO3)c1.Cl` [Example 23, N-[(6-amino-4-methyl-2-pyridinyl)butyl]-1,3-benzodioxole-5-carboxamide hydrochloride] stands 176 to 178 °C.
`Cc1cc(N)nc(CCCCNCc2ccc3c(c2)OCO3)c1.O=C(O)/C=C/C(=O)O` [Example 29, N-[4-(6-amino-4-methyl-2-pyridinyl)butyl]-N-(1,3-benzodioxole-5-ylmethyl)amine fumarate]: the melting point lay in the range of 224 to 226 °C.
`Cc1cc(N)nc(CCCCNC/C=C/c2ccccc2)c1.O=C(O)/C=C/C(=O)O` [Example 30, N-[4-(6-amino-4-methyl-2-pyridinyl)butyl]-N-[(E)-3-phenyl-2-propenyl]amine fumarate] returned a melting point of 163 to 165 °C.
The compound `Cc1cc(N)nc(CCCCNC(=O)/C=C/c2ccc3c(c2)OCO3)c1.O=C(O)/C=C/C(=O)O` [Example 31, (E)-N-[4-(6-amino-4-methyl-2-pyridinyl)butyl]-3-(1,3-benzodioxole-5-yl)-2-propenamide fumarate] had a melting point of 111 to 113 °C.

These data come from patent publication US6762176B1, “2-aminopyridine derivatives, their use as medicines and pharmaceutical compositions containing them” (Societe de Consells de Recherches et D'Applications …, priority 1998, dated 2004).
